Legend:
[1] = molecular target: T1, human V1a receptor (Homo sapiens, UniProt P37288); assay: Cellular in vitro assay for vasopressin receptor activity (aequorin luminescence, CHO K1 cells), hV1a; assay type: cell-based; conditions: CHO cell line transfected with human V1a receptor, agonist [Arg8]-vasopressin
T1 construct: expressed in transfected cells; host or cells: CHO K1 (ATCC), constitutively expressing modified aequorin
Text: (§1) The identification of agonists and antagonists of the V1a and V2 vasopressin receptors from humans and rats and also the quantification of the activity of the substances described here took place using recombinant cell lines. These cells derive originally from a hamster ovary epithelial cell (Chinese Hamster Ovary, CHO K1, ATCC: American Type Culture Collection, Manassas, Va. 20108, USA). The test cell lines constitutively express a modified form of the calcium-sensitive photoprotein aequorin, which, after reconstitution with the cofactor coelenterazine, emits light when there are increases in the free calcium concentration (Rizzuto R., Simpson A. W., Brini M., Pozzan T.; Nature 358 (1992) 325-327). In addition, the cells are stably transfected with the human or rat V1a or V2 receptors. In the case of the Gs-coupling V2 receptors, the cells are stably transfected with a further gene, which codes for the promiscuous Gα16 protein (Amatruda T. T., Steele D. A., Slepak V. Z., Simon M. I., Proc. Nat. Acad. Sci. USA 88 (1991), 5587-5591), either independently or as a fusion gene. The resulting vasopressin receptor test cells react to stimulation of the recombinantly expressed vasopressin receptors by intracellular release of calcium ions, which can be quantified by the resulting aequorin luminescence using a suitable luminometer (Milligan G., Marshall F., Rees S., Trends in Pharmaco. Sci. 17 (1996) 235-237).
(§2) Test procedure: On the day before the assay, the cells are plated out in culture medium (DMEM, 10% FCS, 2 mM glutamine, 10 mM HEPES) in 384-well microtiter plates and kept in a cell incubator (96% humidity, 5% v/v carbon dioxide, 37° C.). On the day of the assay, the culture medium is replaced by a Tyrode solution (140 mM sodium chloride, 5 mM potassium chloride, 1 mM magnesium chloride, 2 mM calcium chloride, 20 mM glucose, 20 mM HEPES), which additionally contains the cofactor coelenterazine (50 μM), and the microtiter plate is then incubated for a further 3-4 hours. The test substances in various concentrations are placed for 10 to 20 minutes in the wells of the microtiter plate before the agonist [Arg8]-vasopressin is added, and the resulting light signal is measured immediately in the luminometer. The IC50 values are calculated using the GraphPad PRISM computer program (Version 3.02).
(§3) The table below lists representative IC50 values for the compounds of the invention on the cell line transfected with the human V1a or V2 receptor: […]

[2] = molecular target: T2, human V2 receptor (Homo sapiens, UniProt P30518); assay: Cellular in vitro assay for vasopressin receptor activity (aequorin luminescence, CHO K1 cells), hV2; assay type: cell-based; conditions: CHO cell line transfected with human V2 receptor and Gα16, agonist [Arg8]-vasopressin
T2 construct: expressed in transfected cells; host or cells: CHO K1 (ATCC), constitutively expressing modified aequorin and co-transfected with Gα16
Text: as §1, §2, §3

T2 sequence (P30518 whole entry): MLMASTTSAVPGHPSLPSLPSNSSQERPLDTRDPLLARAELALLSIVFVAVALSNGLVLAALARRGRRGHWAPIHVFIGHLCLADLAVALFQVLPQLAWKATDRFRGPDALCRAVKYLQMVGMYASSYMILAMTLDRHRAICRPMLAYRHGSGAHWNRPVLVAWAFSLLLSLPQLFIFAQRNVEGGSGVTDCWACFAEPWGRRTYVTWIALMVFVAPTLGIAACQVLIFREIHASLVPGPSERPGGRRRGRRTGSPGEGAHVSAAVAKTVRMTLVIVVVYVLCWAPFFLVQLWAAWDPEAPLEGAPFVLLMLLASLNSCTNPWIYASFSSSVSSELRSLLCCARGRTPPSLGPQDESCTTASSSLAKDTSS
T1 sequence (P37288 whole entry): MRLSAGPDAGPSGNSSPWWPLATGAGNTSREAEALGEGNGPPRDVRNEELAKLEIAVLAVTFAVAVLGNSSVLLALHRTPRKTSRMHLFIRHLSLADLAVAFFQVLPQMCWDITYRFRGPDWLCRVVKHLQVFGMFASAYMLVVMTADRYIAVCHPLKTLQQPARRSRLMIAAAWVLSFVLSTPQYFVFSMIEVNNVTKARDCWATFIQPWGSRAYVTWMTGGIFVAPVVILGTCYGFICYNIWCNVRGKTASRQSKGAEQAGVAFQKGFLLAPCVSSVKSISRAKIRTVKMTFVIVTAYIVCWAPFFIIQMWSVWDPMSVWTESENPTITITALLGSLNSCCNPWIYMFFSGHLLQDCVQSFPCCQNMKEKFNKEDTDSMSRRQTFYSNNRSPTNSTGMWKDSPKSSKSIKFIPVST

Row | Structure (SMILES) | IC50 [1] [nM] | IC50 [2] [nM]
1 | CC(NC(=O)Cn1nc(-c2ccc(Cl)cc2)n(C[C@H](O)C(F)(F)F)c1=O)(C(=O)O)c1cccc(C(F)(F)F)c1 (stereo partly drawn) [Example 1, 2-[({3-(4-Chlorophenyl)-5-oxo-4-[(2S)-3,3,3-trifluoro-2-hydroxypropyl]-4,5-dihydro-1H-1,2,4-triazol-1-yl}acetyl)amino]-2-[3-(trifluoromethyl)phenyl]propanoic acid] | 118 | 12
2 | C[C@](NC(=O)Cn1nc(-c2ccc(Cl)cc2)n(C[C@H](O)C(F)(F)F)c1=O)(C(N)=O)c1cccc(C(F)(F)F)c1 [Example 4, (2R)-2-[({3-(4-Chlorophenyl)-5-oxo-4-[(2S)-3,3,3-trifluoro-2-hydroxypropyl]-4,5-dihydro-1H-1,2,4-triazol-1-yl}acetyl)amino]-2-[3-(trifluoromethyl)phenyl]propanamide] | 2.2 | 3.7
3 | C[C@@](NC(=O)Cn1nc(-c2ccc(Cl)cc2)n(C[C@H](O)C(F)(F)F)c1=O)(C(N)=O)c1cccc(C(F)(F)F)c1 [Example 3, (2S)-2-[({3-(4-Chlorophenyl)-5-oxo-4-[(2S)-3,3,3-trifluoro-2-hydroxypropyl]-4,5-dihydro-1H-1,2,4-triazol-1-yl}acetyl)amino]-2-[3-(trifluoromethyl)phenyl]propanamide] | 106 | 28
4 | CCC(NC(=O)Cn1nc(-c2ccc(Cl)cc2)n(C[C@H](O)C(F)(F)F)c1=O)(C(N)=O)c1cccc(C(F)(F)F)c1 (single isomer, unassigned) [Example 14] | 6 | 6.4

Results, then the compound that gave them:

Row | IC50 [1] [nM] | IC50 [2] [nM] | Structure (SMILES)
5 | 6 | 16 | CC(NC(=O)Cn1nc(-c2ccc(Cl)cc2)n(Cc2ccccc2F)c1=O)(C(N)=O)c1cccc(C(F)(F)F)c1 (single isomer, unassigned) [Example 25, 2-({[3-(4-Chlorophenyl)-4-(2-fluorobenzyl)-5-oxo-4,5-dihydro-1H-1,2,4-triazol-1-yl]acetyl}amino)-2-[3-(trifluoromethyl)phenyl]propanamide]
6 | 12 | 220 | C[C@](NC(=O)Cn1nc(-c2ccc(Cl)cc2)n(C[C@H](O)C(F)(F)F)c1=O)(C(N)=O)c1ccccc1Cl [Example 17, (2R)-2-(2-Chlorophenyl)-2-[({3-(4-chlorophenyl)-5-oxo-4-[(2S)-3,3,3-trifluoro-2-hydroxypropyl]-4,5-dihydro-1H-1,2,4-triazol-1-yl}acetyl)amino]propanamide]
7 | 13 | 14 | C[C@](NC(=O)Cn1nc(-c2ccc(Cl)cc2)n(/C=C/C(F)(F)F)c1=O)(C(N)=O)c1cccc(C(F)(F)F)c1 [Example 19, (2R)-2-[({3-(4-Chlorophenyl)-5-oxo-4-[(1E)-3,3,3-trifluoroprop-1-en-1-yl]-4,5-dihydro-1H-1,2,4-triazol-1-yl}acetyl)amino]-2-[3-(trifluoromethyl)phenyl]propanamide]

Source: patent publication US20120053218A1, “TRIAZOLE DERIVATIVES AS VASOPRESSIN-RECEPTOR INHIBITORS FOR TREATING CARDIAC INSUFFICIENCY” (BAYER PHARMA AKTIENGESELLSCHAFT, priority 2009, published 2012)
